Results published in patent publication US10426815B2, “Prevention and treatment of itch with an MRGPR antagonist” (THE GENERAL HOSPITAL CORPORATION, priority 2015, dated 2019).

Columns and labels:
Format in all cases: cell-based
human LAD2 mast cells = assay: Human LAD2 mast cell degranulation assay (β-hexosaminidase release); conditions: LAD2 cells preincubated with 100 μM QWF for 10 min
Description: The human LAD2 mast cell line (from D. Metcalfe, National Institute of Allergy and Infectious Diseases, NIH, Bethesda, Md.) was cultured in StemPro-34 SFM medium (LIFE TECHNOLOGIES) supplemented with 2 mM L-glutamine, 100 U/ml penicillin, 100 μg/ml streptomycin, and 100 ng/ml recombinant human stem cell factor (PEPROTECH). The cells were maintained at 0.25-5×10^5 cells/ml at 37° C. and 5% CO2 and hemi-depleted each week.
Degranulation was measured as described previously (36). In brief, LAD2 cells were preincubated with 100 μM QWF for 10 min before activation by agonists at indicated concentrations for 30 min. The level of mast cell degranulation was assessed by the release of β-hexosaminidase in mast cell granules, quantified by the level of its substrate p-nitrophenyl N-acetyl-β-D-glucosamide (PNAG) digested in a colorimetric assay.

MrgX3 (human MRGPRX3) = target: T1, MrgX3 (human MRGPRX3) (Homo sapiens, UniProt Q96LB0); assay: Calcium imaging of cells transfected with the GPCR (Table 1); conditions: SP 10 μM (FIG. 9)
T1 construct: expressed in transfected cells; host or cells: HeLa cells, pcDNA3.1(-)
T1 sequence (Q96LB0 whole entry): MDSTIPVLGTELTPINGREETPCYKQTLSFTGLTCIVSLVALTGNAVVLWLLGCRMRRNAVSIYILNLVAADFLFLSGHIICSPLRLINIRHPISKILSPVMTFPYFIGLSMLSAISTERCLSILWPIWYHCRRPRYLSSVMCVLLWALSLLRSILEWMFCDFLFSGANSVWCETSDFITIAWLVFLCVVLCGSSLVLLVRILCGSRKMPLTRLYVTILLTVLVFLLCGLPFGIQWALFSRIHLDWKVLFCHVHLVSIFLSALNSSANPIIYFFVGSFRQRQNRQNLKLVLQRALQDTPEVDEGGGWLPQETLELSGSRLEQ
Description: (§1) Human NK1 cDNA was obtained from LIFE Technologies, PCR cloned with Xho I-Hind III ends and cloned into pcDNA3.1(−). Mouse NK2 and NK3 expression-ready vectors were obtained from […] (Piscataway, N.J.). All other Mrgprs (human MRGPRX1, human MRGPRX2, human MRGPRX3, human MRGPRX4, mouse MrgprA2a, mouse MrgprA2b, mouse MrgprA3, mouse MrgprA4, mouse MrgprA9, mouse MrgprA10, mouse MrgprB4 and mouse MrgprB5) were cloned by PCR from genomic DNAs and inserted into pcDNA3.1 (−).
(§2) 10 μg of expression vector (human MRGPRX2, mouse MrgprA1 or NK1) and 10 μl of LIPOFECTAMINE 2000 transfection reagent were diluted into 0.5 ml of DMEM and separately left at room temperature (RT) for 5 min. They were then mixed and incubated at RT for 20 minutes prior to being added to HeLa cells. HeLa cells were grown to confluence, trypsinized and 1×10^6 cells were pelleted in a 15 ml tube by centrifugation at 1000 rpm for 5 minutes. […]
(§3) Calcium imaging was performed immediately after loading cells with Fura-2, using a ZEISS Axiovert 200M microscope platform equipped with a flipping filter wheel for ratiometric imaging. […] The software later analyzed all images taken during each excitation period. Ratiometric changes were measured in 10-20 cells in each individual experiment. An average of the fluorescence of the cells in each image was calculated and plotted against time in seconds. […]

MrgX4 (human MRGPRX4) = target: T2, MrgX4 (human MRGPRX4) (Homo sapiens, UniProt Q96LA9); assay: as above; conditions: SP 10 μM (FIG. 9)
T2 construct: expressed in transfected cells; host or cells: HeLa cells, pcDNA3.1(-)
T2 sequence (Q96LA9 whole entry): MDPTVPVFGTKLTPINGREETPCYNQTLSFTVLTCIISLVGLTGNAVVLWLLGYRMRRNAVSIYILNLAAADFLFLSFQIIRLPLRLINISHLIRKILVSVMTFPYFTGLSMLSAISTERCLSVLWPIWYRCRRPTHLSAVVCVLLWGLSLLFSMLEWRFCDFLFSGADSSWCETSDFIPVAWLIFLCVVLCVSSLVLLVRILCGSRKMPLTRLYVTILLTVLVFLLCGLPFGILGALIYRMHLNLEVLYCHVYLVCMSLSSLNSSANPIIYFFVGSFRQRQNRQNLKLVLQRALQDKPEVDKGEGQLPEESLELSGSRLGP
Description: as §1, §2, §3

Row | Substance | inhibition of degranulation induced by SP (human LAD2 mast cells) | inhibition of degranulation induced by atracurium (human LAD2 mast cells) | inhibition of degranulation induced by ciprofloxacin (human LAD2 mast cells) | inhibition of degranulation induced by compound 48/80 (human LAD2 mast cells) | activation of hMRGPRX3 by the substance (in words) (MrgX3 (human MRGPRX3)) | activation of hMRGPRX4 by the substance (in words) (MrgX4 (human MRGPRX4))
1 | Boc-Gln-D-Trp(Formyl)-Phe benzyl ester trifluoroacetate [QWF] | significantly inhibits | significantly inhibits | significantly inhibits | significantly inhibits |  | 
2 | SP: inflammatory undecapeptide neuropeptide of the tachykinin family, synthesized by GenScript |  |  |  |  | does not activate | does not activate
